Assay results reported in patent US20220047718A1, “Nanoparticle-Based Therapy of Inflammatory Disorders” (priority 2018, published 2022).

Experiments:
[1] = tested on: Imiquimod (IMQ)-induced mouse model of psoriasis
Experimental: (a) Experimental Scheme of three-day IMQ treatment with seven-day systemic therapy. (b) (upper panel) change in ear thickness between control (PBS; crosses), IMQ-treated (squares), and systemic MTX therapy receiving (1 mg/kg (upward triangles), 2 mg/kg (downward triangles), 5 mg/kg (diamonds)) animals. (Lower panels) statistical analysis of ear thickness differences between groups between days 4-7.
(a) (upper panel), change in ear thickness between control (PBS, crosses), IMQ-treated (squares), and systemic therapy receiving in addition to IMQ, 2 mg/kg MTX (upward triangles), GNPs containing 5.5 mg/kg Au (downward triangles), and MTX-GNP containing 2 mg/kg MTX and 5.5 mg/kg Au (diamonds). (Lower panels) statistical analysis of ear thickness differences between groups between days 4-7. […] Data is pooled from 2-3 independent experiments, 2 to 5 mice per condition and represented as mean±standard deviation.
Clinical efficacy and in vivo tolerability were assessed against relevant controls for both systemic (subcutaneous injection) and topical administration.
First, we evaluated tolerance of mice to MTX with a dose escalation setup (FIG. 2b).

[2] = Formulation into Carbopol 980 gel: precipitation / homogeneity; assay type: physicochemical; conditions: for precipitation / homogeneity in 2% Carbopol 980 gel: Carbopol 980 adjusted to pH 7.4 prior to addition
Experimental: Gels were prepared by dispersing 1-3% w/v of Carbopol polymer (w/v) into purified water with constant mixing and thus allowed to hydrate for 5 hours. Care was taken to avoid air entrapment by agitating the solution slowly on a rocker during preparation of the gel. After 5 hours, the pH of the gel was adjusted to pH 7.4 using triethylamine (Sigma-Aldrich, Lot #STBF616V) to neutralise the pH and turn the solution into a gel (triethanolamine is contemplated herein as a suitable alternative to triethylamine).
For production of methotrexate-GNP hydrogel, 2% w/v Carbopol®980 was initially dispersed for 5 hours with constant mixing. […] Plain methotrexate drug gel was prepared by dissolving MTX-PEG3-NH2 in water and adjusting the pH to pH 4.5. The MTX-PEG3-NH2 solution was added to the previously made 2% Carbopol®980 solution.
The method for formulating gold nanoparticles into Carbopol®980 gels was optimised by testing the effects of pH and speed of addition of nanoparticles using control [α-Gal][PEG8COOH]@Au GNPs. […] The gels were all stored at 4° C.
For production of methotrexate-GNP hydrogel, 2% w/v Carbopol®980 was dispersed for 5 hours with constant mixing. The pH of the Carbopol®980 solution was adjusted to pH 7.4 to produce a clear gel. […] Plain methotrexate drug gel was prepared by adding MTX-PEG3-NH2 dissolved in water to the pH 7.4 adjusted Carbopol®980 gel (2%).

Row | Structure (SMILES) | animal wellbeing ([1]; mouse, in vivo) | tolerability / systemic toxicity (liver enzyme measurements, daily weight monitoring) ([1]; mouse, in vivo, sc, 2 mg/kg) | IMQ-induced inflammation (ear thickness) ([1]; systemic (subcutaneous), 2 mg/kg MTX daily) | ear thickness / inflammation control ([1]; systemic MTX 5 mg/kg daily) | precipitation / homogeneity in 2% Carbopol 980 gel [2] | precipitation / homogeneity in 2% Carbopol 980 gel ([2]; listed as modified methotrexate) | precipitation on addition to 2% Carbopol 980 solution ([2]; acidic addition (GNPs pH 2.6; MTX-PEG3-NH2 pH 4.5), Carbopol not neutralised)
1 | CN(Cc1cnc2nc(N)nc(N)c2n1)c1ccc(C(=O)N[C@@H](CCC(=O)O)C(=O)O)cc1 [MTX, Methotrexate] | irrevocably impaired animal wellbeing | tolerable | no significant inflammation control | clinically effective | – | – | –
2 | CN(Cc1cnc2nc(N)nc(N)c2n1)c1ccc(C(=O)NC(CCC(=O)NCCCOCCOCCOCCCN)C(=O)O)cc1 (stereo not shown) [MTX-PEG3-NH2, 4-[(3-{2-[2-(3-aminopropoxy)ethoxy]ethoxy}propyl)carbamoyl]-2-[(4-{[(2,4-diaminopteridin-6-yl)methyl](methyl)amino}phenyl)formamido]butanoic acid] | – | – | – | – | no precipitation | without precipitation | small level of yellow precipitation
